One may read the pIC50 as −log10 of the IC50, conventionally taken in molar units. Broadly, the IC50 is the concentration that inhibits the measured activity by half.

Assay type in all cases: biochemical
One test addresses T1, recombinant human DPP7 (Homo sapiens, UniProt Q9UHL4).
T1 construct: purchased R&D Systems
Put plainly: DPP7 inhibition, fluorogenic substrate Lys-Pro-AMC. Conditions: recombinant human DPP7. The procedure, abridged: (§1)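 Enzyme per reaction: 50 ng DPP9, 20 ng DPP8, 10 ng each DPP7 and PREP. Compounds were serially diluted (8 points, up to 0.5% DMSO) and incubated at 25 °C.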

The target of the next test is T2, recombinant human DPP9 (Homo sapiens, UniProt Q86TI2).
T2 construct: purchased R&D Systems
T2 sequence (Q86TI2 whole entry): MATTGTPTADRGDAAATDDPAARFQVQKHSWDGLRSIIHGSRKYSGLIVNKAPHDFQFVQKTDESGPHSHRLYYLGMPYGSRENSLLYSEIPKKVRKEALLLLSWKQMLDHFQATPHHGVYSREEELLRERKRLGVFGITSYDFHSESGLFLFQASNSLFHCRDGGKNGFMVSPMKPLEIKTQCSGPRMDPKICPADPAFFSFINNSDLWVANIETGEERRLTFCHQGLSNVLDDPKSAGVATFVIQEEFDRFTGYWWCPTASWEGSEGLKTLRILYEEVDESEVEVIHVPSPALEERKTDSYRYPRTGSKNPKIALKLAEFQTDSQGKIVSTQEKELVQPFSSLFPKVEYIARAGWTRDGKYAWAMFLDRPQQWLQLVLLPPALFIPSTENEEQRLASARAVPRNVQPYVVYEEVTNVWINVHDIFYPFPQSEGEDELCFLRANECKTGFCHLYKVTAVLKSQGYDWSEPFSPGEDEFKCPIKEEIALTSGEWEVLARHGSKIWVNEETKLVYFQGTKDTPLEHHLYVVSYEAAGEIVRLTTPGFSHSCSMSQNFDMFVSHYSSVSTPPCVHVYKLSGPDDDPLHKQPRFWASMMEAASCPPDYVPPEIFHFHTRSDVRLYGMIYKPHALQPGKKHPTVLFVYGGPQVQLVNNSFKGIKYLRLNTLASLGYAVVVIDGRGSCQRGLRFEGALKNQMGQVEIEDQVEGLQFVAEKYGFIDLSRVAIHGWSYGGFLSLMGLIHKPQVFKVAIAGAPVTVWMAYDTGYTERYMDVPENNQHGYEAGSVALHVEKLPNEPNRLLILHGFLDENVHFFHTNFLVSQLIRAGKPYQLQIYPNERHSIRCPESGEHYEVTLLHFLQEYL
Put plainly: DPP9 inhibition, fluorogenic substrate H-Gly-Pro-AMC. The settings on record: recombinant human DPP9. The procedure, abridged: as §1

Another test addresses T3, recombinant human PREP (Homo sapiens, UniProt P48147).
T3 construct: purchased R&D System
T3 sequence (P48147 1-710): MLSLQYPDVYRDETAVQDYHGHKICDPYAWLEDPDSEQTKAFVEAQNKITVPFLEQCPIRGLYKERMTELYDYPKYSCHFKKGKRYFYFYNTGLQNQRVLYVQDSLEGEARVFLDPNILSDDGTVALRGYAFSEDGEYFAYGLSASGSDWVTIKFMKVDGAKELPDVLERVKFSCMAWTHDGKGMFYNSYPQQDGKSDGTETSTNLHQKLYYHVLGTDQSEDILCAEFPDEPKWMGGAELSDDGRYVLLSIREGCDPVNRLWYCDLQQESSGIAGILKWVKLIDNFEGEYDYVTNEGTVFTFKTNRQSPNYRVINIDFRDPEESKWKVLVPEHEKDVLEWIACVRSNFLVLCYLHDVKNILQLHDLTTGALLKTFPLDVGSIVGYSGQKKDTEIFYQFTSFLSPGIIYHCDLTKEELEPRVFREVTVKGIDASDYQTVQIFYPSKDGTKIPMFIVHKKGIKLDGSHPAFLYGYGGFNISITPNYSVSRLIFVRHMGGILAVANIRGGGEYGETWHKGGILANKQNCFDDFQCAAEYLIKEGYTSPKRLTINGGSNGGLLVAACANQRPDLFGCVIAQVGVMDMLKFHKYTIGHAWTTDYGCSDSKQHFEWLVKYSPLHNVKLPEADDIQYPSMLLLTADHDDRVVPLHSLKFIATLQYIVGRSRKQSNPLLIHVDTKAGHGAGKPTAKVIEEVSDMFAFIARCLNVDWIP
The test can be described thus: PREP inhibition, fluorogenic substrate Z-Gly-Pro-AMC. Conditions: Inhibitory Activity (IC50, nM) PREP, recombinant human PREP. The procedure, abridged:
as §1

The target in a further test is T4, Recombinant human FAP (Homo sapiens, UniProt Q12884).
T4 construct: purchased R&D systems
T4 sequence (Q12884 1-760): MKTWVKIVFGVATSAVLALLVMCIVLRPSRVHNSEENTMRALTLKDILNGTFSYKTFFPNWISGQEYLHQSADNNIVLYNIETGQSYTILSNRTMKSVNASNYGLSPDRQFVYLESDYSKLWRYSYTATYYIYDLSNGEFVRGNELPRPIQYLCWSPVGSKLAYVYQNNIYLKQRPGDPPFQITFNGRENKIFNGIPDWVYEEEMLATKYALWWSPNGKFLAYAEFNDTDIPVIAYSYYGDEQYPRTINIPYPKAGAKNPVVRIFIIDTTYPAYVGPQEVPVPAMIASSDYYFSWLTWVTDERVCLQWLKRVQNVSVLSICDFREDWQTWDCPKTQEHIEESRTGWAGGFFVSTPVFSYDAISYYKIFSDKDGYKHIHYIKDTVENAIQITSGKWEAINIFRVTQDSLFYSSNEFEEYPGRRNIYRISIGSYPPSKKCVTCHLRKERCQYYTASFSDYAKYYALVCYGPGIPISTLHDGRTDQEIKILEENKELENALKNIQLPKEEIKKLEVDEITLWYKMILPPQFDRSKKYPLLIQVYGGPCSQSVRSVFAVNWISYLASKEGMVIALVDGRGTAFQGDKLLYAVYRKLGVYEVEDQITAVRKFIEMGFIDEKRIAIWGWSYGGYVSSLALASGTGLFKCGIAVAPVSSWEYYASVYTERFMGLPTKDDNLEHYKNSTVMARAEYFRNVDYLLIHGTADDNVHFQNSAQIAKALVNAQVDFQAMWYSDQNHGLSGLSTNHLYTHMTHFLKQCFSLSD
The test can be described thus: FAP FRET assay, FGF21-sequence FRET peptide substrate. The settings on record: FRET peptide with human FGF21 sequence, 6 μM, 37° C. The procedure, abridged: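 Recombinant human FAP, 10 ng per reaction, in 50 mM HEPES pH 7.2 with 150 mM NaCl, 0.1 mg/ml BSA, 1 mM EDTA; HyLite Fluor 488/QXL 520 FRET peptide of human FGF21 sequence at 6 μM final, ≤0.1% DMSO, 37° C. IC50 from 8-point curves by four-parameter logistic fit.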

In a further test the target is DPP4 (Homo sapiens, UniProt P27487). Put plainly: DPP4 inhibition, fluorogenic substrate H-Gly-Pro-AMC. The settings on record: recombinant human DPP4. On the set-up: purchased R&D Systems.
Chain of DPP4 (P27487 whole entry): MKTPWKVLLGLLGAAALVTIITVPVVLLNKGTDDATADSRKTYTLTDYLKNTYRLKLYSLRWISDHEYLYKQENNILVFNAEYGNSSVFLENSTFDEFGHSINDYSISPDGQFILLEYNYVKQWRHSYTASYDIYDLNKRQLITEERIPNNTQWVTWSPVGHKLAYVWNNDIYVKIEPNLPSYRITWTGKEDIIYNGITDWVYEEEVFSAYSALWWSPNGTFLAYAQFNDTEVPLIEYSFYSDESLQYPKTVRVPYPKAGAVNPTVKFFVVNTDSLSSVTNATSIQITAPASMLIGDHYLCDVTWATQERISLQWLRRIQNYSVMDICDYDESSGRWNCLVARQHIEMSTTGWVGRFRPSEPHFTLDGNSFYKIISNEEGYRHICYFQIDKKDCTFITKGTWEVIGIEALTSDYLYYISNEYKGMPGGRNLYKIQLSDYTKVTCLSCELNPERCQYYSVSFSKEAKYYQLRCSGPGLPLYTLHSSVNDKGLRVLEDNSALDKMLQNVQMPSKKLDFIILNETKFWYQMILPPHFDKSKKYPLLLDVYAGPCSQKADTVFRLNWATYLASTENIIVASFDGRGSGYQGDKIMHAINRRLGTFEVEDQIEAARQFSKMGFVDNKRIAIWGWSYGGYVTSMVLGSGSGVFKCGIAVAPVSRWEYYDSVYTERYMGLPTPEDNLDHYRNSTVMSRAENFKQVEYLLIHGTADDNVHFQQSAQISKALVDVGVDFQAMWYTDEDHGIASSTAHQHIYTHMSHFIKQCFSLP

Structures are written as SMILES. pIC50: −log10 of the molar value.

With `CN(C)C(=O)c1ccc(N[C@H]2CCN(CC(=O)N3C[C@@H](F)C[C@H]3C#N)C2)c2cccnc12` [Example 282, N,N-dimethyl-5-[[(3S)-1-[2-oxo-2-[(2S,4S)-2-cyano-4-fluoro-pyrrolidin-1-yl]ethyl]pyrrolidin-3-yl]amino]quinoline-8-carboxamide], the negative logarithm of the IC50 (pIC50) at recombinant human DPP7 is 6.62; on recombinant human DPP9, 5.31; at Recombinant human FAP it was 8.24; at DPP4, 5.46. The IC50 on recombinant human PREP was 5060 nM.

Take `N#C[C@@H]1C[C@H](F)CN1C(=O)CN1CC[C@@H](Nc2ccc3nc(C(F)(F)F)ccc3c2)C1` [Example 210, (2S,4S)-4-fluoro-1-[2-[(3R)-3-[[2-(trifluoromethyl)-6-quinolyl]amino]pyrrolidin-1-yl]acetyl]pyrrolidine-2-carbonitrile]: the pIC50 at recombinant human DPP7 was 6.55; at recombinant human DPP9, 5.89; at Recombinant human FAP, 8.46; on DPP4, 5.57. In addition, the IC50 at recombinant human PREP was 1480 nM.

On to `Cc1cc(N[C@H]2CCN(CC(=O)N3C[C@@H](F)C[C@H]3C#N)C2)cc2cccnc12` [Example 277, (2S,4S)-4-fluoro-1-[2-[(3S)-3-[(8-methyl-6-quinolyl)amino]pyrrolidin-1-yl]acetyl]pyrrolidine-2-carbonitrile], for which the pIC50 at recombinant human DPP7 is 6.72; on recombinant human DPP9, 6.13; at Recombinant human FAP, 8.52; on DPP4, 5.98. On recombinant human PREP, the IC50 came to 1230 nM.

In the case of `N#C[C@@H]1C[C@H](F)CN1C(=O)CN1CC[C@@H](Nc2ccc(C(F)(F)F)c3ncccc23)C1` [Example 183, (2S,4S)-4-fluoro-1-[2-[(3R)-3-[[8-(trifluoromethyl)-5-quinolyl]amino]pyrrolidin-1-yl]acetyl]pyrrolidine-2-carbonitrile], the negative-log IC50 (pIC50) at recombinant human DPP7 is 5.86; at recombinant human DPP9, 5.17; at Recombinant human FAP, 8.66; on DPP4 it was 5.74. Besides, the 50% inhibitory concentration (IC50) at recombinant human PREP was 3370 nM.

On to `N#C[C@@H]1C[C@H](F)CN1C(=O)CN1CC[C@@H](Nc2cc(C(F)(F)F)c3ncccc3c2)C1` [Example 216, (2S,4S)-4-fluoro-1-[2-[(3R)-3-[[8-(trifluoromethyl)-6-quinolyl]amino]pyrrolidin-1-yl]acetyl]pyrrolidine-2-carbonitrile], for which the pIC50 on recombinant human DPP7 was 6.40; on recombinant human DPP9, 6.09; at Recombinant human FAP, 8.77; at DPP4 it was 5.87. In addition, the IC50 at recombinant human PREP is 2560 nM.

As for `Cc1ccc(N[C@@H]2CCN(CC(=O)N3C[C@@H](F)C[C@H]3C#N)C2)c2cccnc12` [Example 181, (2S,4S)-4-fluoro-1-[2-[(3R)-3-[(8-methyl-5-quinolyl)amino]pyrrolidin-1-yl]acetyl]pyrrolidine-2-carbonitrile], the pIC50 is 6.67 at recombinant human DPP7, 5.34 at recombinant human DPP9, 8.59 on Recombinant human FAP and 5.97 at DPP4. In addition, the 50% inhibitory concentration (IC50) on recombinant human PREP worked out at 4670 nM.

Take `CCOc1ccc(N[C@H]2CCN(CC(=O)N3CCC[C@H]3C#N)C2)c2cccnc12` [Example 274, (2S)-1-[2-[(3S)-3-[(8-ethoxy-5-quinolyl)amino]pyrrolidin-1-yl]acetyl]pyrrolidine-2-carbonitrile]: the pIC50 at recombinant human DPP7 was 6.02; on recombinant human DPP9 it was 5.26; on Recombinant human FAP, 8.36; on DPP4, 4.96. Besides, at recombinant human PREP, the IC50 was 14900 nM.

For the compound `N#C[C@@H]1CCCN1C(=O)CN1CC[C@H](Nc2ccc(C(=O)Nc3ccccn3)c3ncccc23)C1` [Example 293, N-(2-pyridyl)-5-[[(3S)-1-[2-oxo-2-[(2S)-2-cyanopyrrolidin-1-yl]ethyl]pyrrolidin-3-yl]amino]quinoline-8-carboxamide], the negative-log IC50 (pIC50) at recombinant human DPP7 was 6.91; on recombinant human DPP9, 5.90; on Recombinant human FAP, 9.10; on DPP4 it was 5.57. In addition, the IC50 on recombinant human PREP came out at 422 nM.

As to `N#C[C@@H]1C[C@H](F)CN1C(=O)CN1CCC(Nc2ccc(C(=O)Nc3ccccc3)c3ncccc23)CC1` [Example 394, 5-[[1-[2-oxo-2-[(2S,4S)-2-cyano-4-fluoro-pyrrolidin-1-yl]ethyl]-4-piperidyl]amino]-N-phenyl-quinoline-8-carboxamide], the negative logarithm of the IC50 (pIC50) on recombinant human DPP7 was 6.44; on recombinant human DPP9, 5.96; on Recombinant human FAP, 8.89; at DPP4 it was 5.59. At recombinant human PREP, the IC50 amounted to 421 nM.

Turning to `COc1cc(N[C@@H]2CCN(CC(=O)N3C[C@@H](F)C[C@H]3C#N)C2)c2cccnc2c1` [Example 177, (2S,4S)-4-fluoro-1-[2-[(3R)-3-[(7-methoxy-5-quinolyl)amino]pyrrolidin-1-yl]acetyl]pyrrolidine-2-carbonitrile], the negative logarithm of the IC50 (pIC50) is 7.33 at recombinant human DPP7, 5.93 on recombinant human DPP9, 8.59 on Recombinant human FAP and 5.47 at DPP4. The IC50 at recombinant human PREP is 2920 nM.

Consider `N#C[C@@H]1C[C@H](F)CN1C(=O)CN1CC[C@H](Nc2ccc(C(=O)Nc3ccncc3)c3ncccc23)C1` [Example 292, N-(4-pyridyl)-5-[[(3S)-1-[2-oxo-2-[(2S,4S)-2-cyano-4-fluoro-pyrrolidin-1-yl]ethyl]pyrrolidin-3-yl]amino]quinoline-8-carboxamide], for which the pIC50 is 6.79 on recombinant human DPP7, 6.43 on recombinant human DPP9, 8.89 on Recombinant human FAP and 5.29 at DPP4. Also, at recombinant human PREP, the half-maximal inhibitory concentration (IC50) turned out to be 1470 nM.

Regarding `N#C[C@@H]1CCCN1C(=O)CN1CC[C@@H](Nc2cc(F)cc3ncccc23)C1` [Example 197, (2S)-1-[2-[(3R)-3-[(7-fluoro-5-quinolyl)amino]pyrrolidin-1-yl]acetyl]pyrrolidine-2-carbonitrile], the pIC50 was 5.39 at recombinant human DPP7, 4.62 on recombinant human DPP9, 8.28 on Recombinant human FAP and 4.87 at DPP4. The half-inhibitory concentration (IC50) on recombinant human PREP turned out to be 14700 nM.

With `CNC(=O)c1ccc(NC2CCN(CC(=O)N3C[C@@H](F)C[C@H]3C#N)CC2)c2cccnc12` [Example 390, N-methyl-5-[[1-[2-oxo-2-[(2S,4S)-2-cyano-4-fluoro-pyrrolidin-1-yl]ethyl]-4-piperidyl]amino]quinoline-8-carboxamide], the negative logarithm of the IC50 (pIC50) on recombinant human DPP7 is 6.45; at recombinant human DPP9 it was 5.88; at Recombinant human FAP, 8.23; on DPP4, 5.82. Besides, the IC50 at recombinant human PREP was 1420 nM.

On to `N#C[C@@H]1C[C@H](F)CN1C(=O)CN1CC[C@H](Nc2cc(Cl)c3ncccc3c2)C1` [Example 279, (2S,4S)-4-fluoro-1-[2-[(3S)-3-[(8-chloro-6-quinolyl)amino]pyrrolidin-1-yl]acetyl]pyrrolidine-2-carbonitrile], for which the pIC50 at recombinant human DPP7 is 6.40; at recombinant human DPP9, 6.21; on Recombinant human FAP, 8.82; on DPP4, 6.60. Besides, on recombinant human PREP, the IC50 is 637 nM.

For the origin of these results see patent US11655235B2, “Pyrrolidine and piperidine compounds” (YUHAN CORPORATION, priority 2019, dated 2023).
